Converted amounts (≈) assume the structure as drawn. Like-named read-outs stand apart in the source and are kept apart here.
Experiments:
[1] = biological target: T1, 1b (BK) NS5BΔ21 (Hepatitis C virus genotype 1b, UniProt P26663); assay: HCV polymerase inhibition assay; assay type: biochemical
T1 construct: 100 nM 1b (BK) NS5BΔ21
Description: HCV polymerase reactions were carried out using a modified method of Howe et al., Antimicrobial Agents and Chemotherapy 2004 48(12): 4813-4821. Reactions contained a final concentration of, 0.5% DMSO, 100 nM 1b (BK) NS5BΔ21, 20 mM Tris-HCl pH 7.5, 5 mM MgCl2, 5 mM MnCl2, 3 mM DTT, 0.05% BSA, 0.2 U/μL RNasin, 10 μg/mL Poly(rC) template, GTP (at Km) and 0.05 μCi/μL ^33P-GTP in a total reaction volume of 50 μL. Compounds were tested in a three fold dilution series, for example starting from 50 μM. Reactions were initiated with the addition of GTP and terminated after […] with 50 μL ice cold 0.2 M EDTA. Terminated reactions were transferred to DEAE 96-well filter plates, unincorporated nucleotides washed from the filters and 50 μL scintillation fluid added prior to reading on a scintillation counter. The compound concentration that reduced ^33P-GTP incorporation by 50% (IC50) was calculated using non-linear regression.

[2] = tested on: genotype 1b (Con 1) subgenomic replicon cell line; assay: HCV replicon assay, genotype 1b, Renilla luciferase reporter; assay type: cell-based; conditions: Hepatitis C virus; 72 hours incubation, Renilla luciferase activity
Description: A genotype 1b (Con 1) subgenomic replicon cell line based on Blight et al., Science 2000 290: 1972-1974, modified to express a Renilla luciferase reporter gene was used to assess antiviral activity of test compounds. Cell cultures were maintained in a sub-confluent state in DMEM with glutamine, 10% heat-inactivated foetal bovine serum (FBS) and G418 (Geneticin®).
For assay, cells were seeded at a density of 7000 cells/well into 96 well tissue culture trays in culture media lacking G418. Compounds were tested in a three fold dilution series, for example starting from 50 uM. After 72 hours incubation at 37° C. and 5% CO2, Renilla luciferase activity was quantified via the Promega Renilla Luciferase or Renilla-Glo™ Luciferase Assay Systems (Promega corporation. The same method was employed for replicon assays using subgenomic genotype 1a (H77) and 2a (JFH-1) replicon cell lines with a seeding cell density of 5000 cells/well for the 2a cell lines.
The compound concentration that reduced luciferase activity by 50% (EC50) was calculated using non-linear regression.

[3] = Aqueous solubility (laser nephelometry); assay type: physicochemical; conditions: for solubility at 30 min: aqueous assay buffer pH 6.5 with 1% DMSO, aqueous buffer, kinetic from dmso stock, pH 6.5, 1% DMSO, 30 minute incubation at 25° C.
Description: Test compounds prepared in DMSO were screened in duplicate over a range of concentrations (1.6-100 ug/mL) in different aqueous media (for example a pH6.5 buffers which are relevant to the stomach and upper regions of the small intestine and therefore important when predicting the amount of drug likely to be in solution following oral administration). Test compounds were serially diluted in 100% DMSO ranging from 10-0.16 mg/mL. These titrated DMSO stocks were then further diluted 1:100 with assay buffer and added to test plates (UV Star Griener 384 well plates), maintaining the DMSO concentration at 1%.

[4] = read-out: solubility ranges at pH 6.5

T1 sequence (P26663 2420-2989, stated change not applied): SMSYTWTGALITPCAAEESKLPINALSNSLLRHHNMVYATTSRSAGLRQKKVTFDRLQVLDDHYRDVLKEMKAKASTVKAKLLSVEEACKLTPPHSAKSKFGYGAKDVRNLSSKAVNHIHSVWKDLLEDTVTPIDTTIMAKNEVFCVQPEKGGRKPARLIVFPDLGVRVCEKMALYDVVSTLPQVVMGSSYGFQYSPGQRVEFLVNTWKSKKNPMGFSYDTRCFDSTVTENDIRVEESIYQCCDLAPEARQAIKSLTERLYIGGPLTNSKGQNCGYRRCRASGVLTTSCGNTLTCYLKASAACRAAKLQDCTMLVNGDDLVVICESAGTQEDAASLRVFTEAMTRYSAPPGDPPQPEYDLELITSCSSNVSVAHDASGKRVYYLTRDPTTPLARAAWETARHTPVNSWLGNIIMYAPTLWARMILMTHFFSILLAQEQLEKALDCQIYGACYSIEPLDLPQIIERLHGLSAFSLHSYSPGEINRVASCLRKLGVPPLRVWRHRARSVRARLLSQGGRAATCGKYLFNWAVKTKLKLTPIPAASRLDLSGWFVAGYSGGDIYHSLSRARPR

Structure (SMILES) | IC50 [1] [µM] | EC50 [2] [µM] | solubility at 30 min [3, 4] [µg/mL] | solubility at 30 min ([3]; read-out: Solubility at pH 6.5) [µg/mL] | solubility at pH 6.5 (in words) ([3]; pH 6.5, good solubility when the value is >25 ug/mL)
CNC(=O)c1c2cc(C3CC3)c(N(CC[C@@H]3CO[C@H]3C)S(C)(=O)=O)cc2nn1-c1ccc(Cl)cc1 (single isomer, unassigned) [Compound 32] | 0.1 to 0.49 | < 0.1 | 25 to 50 (≈ 48.4 to 96.7 µM) |  | 
CNC(=O)c1c2cc(C3CC3)c(N(CC[C@H]3CO[C@@H]3C)S(C)(=O)=O)cc2nn1-c1ccc(Cl)cc1 (single isomer, unassigned) [Compound 33] | 0.1 to 0.49 | < 0.1 | 50 to 100 (≈ 96.7 to 193 µM) |  | 
CNC(=O)c1c2cc(C3CC3)c(N(CCC3COC3)S(C)(=O)=O)cc2nn1-c1ccc(C)cc1 [Compound 3, 5-Cyclopropyl-N-methyl-2-(4-methylphenyl)-6-{(methylsulfonyl)[2-(oxetan-3-yl)ethyl]amino}-2H-indazole-3-carboxamide] | < 0.1 | < 0.1 | 12.5 to 25 (≈ 25.9 to 51.8 µM) |  | 
CNC(=O)c1c2cc(C3CC3)c(N(CCC3CN(C(C)=O)C3)S(C)(=O)=O)cc2nn1-c1ccc(Cl)cc1 [Compound 8, 6-{[2-(1-acetylazetidin-3-yl)ethyl](methylsulfonyl)amino}-2-(4-chlorophenyl)-5-cyclopropyl-N-methyl-2H-indazole-3-carboxamide] | 0.1 to 0.49 | < 0.1 | 25 to 50 (≈ 45.9 to 91.9 µM) |  | 
CNC(=O)c1c2cc(C3CC3)c(N(CC3COC3)S(C)(=O)=O)cc2nn1-c1ccc(Cl)cc1 [Compound 14, 2-(4-chlorophenyl)-5-cyclopropyl-N-methyl-6-[(methylsulfonyl)(oxetan-3-ylmethyl)amino]-2H-indazole-3-carboxamide] | 0.1 to 0.49 | < 0.1 |  | 25 to 50 (≈ 51.1 to 102 µM) | good solubility
CNC(=O)c1c2cc(C3CC3)c(N(CCC3OCC3C)S(C)(=O)=O)cc2nn1-c1ccc(Cl)cc1 (stereo not drawn) [Compound 17, 3,5-anhydro-1-{[2-(4-chlorophenyl)-5-cyclopropyl-3-(methylcarbamoyl)-2H-indazol-6-yl](methylsulfonyl)amino}-1,2,4-trideoxy-4-methylpentitol] | 0.1 to 0.49 | 0.1 to 0.49 | 50 to 100 (≈ 96.7 to 193 µM) |  | 
CNC(=O)c1c2cc(C3CC3)c(N(CC(F)C3COC3)S(C)(=O)=O)cc2nn1-c1ccc(Cl)cc1 (stereo not drawn) [Compound 18, 2-(4-chlorophenyl)-5-cyclopropyl-6-{[2-fluoro-2-(oxetan-3-yl)ethyl](methylsulfonyl)amino}-N-methyl-2H-indazole-3-carboxamide] | < 0.1 | 0.1 to 0.49 | 50 to 100 (≈ 96 to 192 µM) |  | 
CNC(=O)c1c2cc(C3CC3)c(N(CCC3(F)COC3)S(C)(=O)=O)cc2nn1-c1ccc(Cl)cc1 [Compound 26, 2-(4-chlorophenyl)-5-cyclopropyl-6-[2-(3-fluorooxetan-3-yl)ethyl-methylsulfonyl-amino]-N-methyl-indazole-3-carboxamide] | < 0.1 | < 0.1 | 25 to 50 (≈ 48 to 96 µM) |  | 
CNC(=O)c1c2cc(C3CC3)c(N(CCC3(OC)CNC3)S(C)(=O)=O)cc2nn1-c1ccc(Cl)cc1 [Compound 29, 2-(4-chlorophenyl)-5-cyclopropyl-6-[2-(3-methoxyazetidin-3-yl)ethyl-methylsulfonyl-amino]-N-methyl-indazole-3-carboxamide] | 1 to 10 | 1 to 10 | 12.5 to 25 (≈ 23.5 to 47 µM) |  | 
CNC(=O)c1c2cc(C3CC3)c(N(CCC3(OC)CN(C(C)=O)C3)S(C)(=O)=O)cc2nn1-c1ccc(Cl)cc1 [Compound 30, 6-[2-(1-acetyl-3-methoxy-azetidin-3-yl)ethyl-methylsulfonyl-amino]-2-(4-chlorophenyl)-5-cyclopropyl-N-methyl-indazole-3-carboxamide] | 0.5 to 0.99 | 0.5 to 0.99 | 50 to 100 (≈ 87.1 to 174 µM) |  | 
CNC(=O)c1c2cc(C3CC3)c(N(CCC3(OC)COC3)S(C)(=O)=O)cc2nn1-c1ccc(Cl)cc1 [Compound 36, 2-(4-chlorophenyl)-5-cyclopropyl-6-[2-(3-methoxyoxetan-3-yl)ethyl-methylsulfonyl-amino]-N-methyl-indazole-3-carboxamide] |  | 0.1 to 0.49 | 50 to 100 (≈ 93.8 to 188 µM) |  | 

From patent US9120775B2, “Viral polymerase inhibitors” (Biota Scientific Management Pty Ltd, priority 2012, dated 2015)
